For data set [1] the following is noted: 298.15 K; 101.33 kPa; Liquid; Vibrating tube method.
Data set [2] can be described thus: refractive index (Na D-line) (dimensionless). To be noted: 298.15 K; 101.33 kPa; Liquid; Standard Abbe refractometry.

Numbers after ± are expanded uncertainties.

The term mass density denotes the mass of a sample divided by its volume. What is called refractive index is the speed of light in vacuum divided by its phase velocity in the sample. For the compound `CC(C)C(=O)O` [2-methylpropanoic acid], the mass density in data set [1] is 941.63 ± 6 kg/m3. Besides, the refractive index in data set [2] was 1.3899 ± 0.0041.

As for `CCCCO` [butan-1-ol], in data set [1], the mass density is given as 807.96 ± 6 kg/m3. For the same compound, the refractive index in data set [2] stood at 1.3941 ± 0.0041.

With `CCCC(=O)O` [butanoic acid], in data set [1], the mass density was found to be 952.1 ± 6 kg/m3. In addition, the refractive index in data set [2] is 1.3981 ± 0.0041.

As for `CC(C)OC(C)C` [diisopropyl ether], the mass density in data set [1] worked out at 723.8 ± 6 kg/m3. Besides, the refractive index in data set [2] turned out to be 1.3674 ± 0.004.

Regarding `CO` [methanol], the mass density in data set [1] came to 791 ± 6 kg/m3. For the same compound, the refractive index in data set [2] stood at 1.3281 ± 0.0041.

Take `O` [water]: in data set [2], the refractive index came to 1.3324 ± 0.0041.

Values taken from the NIST ThermoML archive (doi:10.1021/acs.jced.5b00527).
